Reference: ChEMBL document CHEMBL1201862, “PubChem BioAssay data set” (2004)
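Grown in 96-well plates, cells were treated for 48 hours with each compound at five concentrations. Insufficient inhibition: endpoint recorded as highest concentration tested. GI50 = concentration required for 50% inhibition of growth.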 Active and inactive are the calls of the source. Rule as the data show it: active = GI50 up to about 1.1 µM and inactive = higher.

How the values were obtained:
Assay in all cases: DTP human tumour cell line panel, 48 h
SW-620 = test system: SW-620
COLO 205 = test system: COLO 205
SN12C = test system: SN12C
SR = test system: SR
HOP-92 = test system: HOP-92
KM12 = test system: KM12
DMS-273 = test system: DMS-273
UO-31 = test system: UO-31
KM-20L2 = test system: KM-20L2
LXFL 529 = test system: LXFL 529
MOLT-4 = test system: MOLT-4
TK-10 = test system: TK-10
NCI-H460 = test system: NCI-H460
DLD-1 = test system: DLD-1
UACC-257 = test system: UACC-257
RPMI-8226 = test system: RPMI-8226
SK-MEL-28 = test system: SK-MEL-28
HCT-15 = test system: HCT-15
OVCAR-3 = test system: OVCAR-3
SF-539 = test system: SF-539
SF-268 = test system: SF-268
SNB-19 = test system: SNB-19
M19-MEL = test system: M19-MEL
HOP-62 = test system: HOP-62
OVCAR-8 = test system: OVCAR-8
UACC-62 = test system: UACC-62
HOP-18 = test system: HOP-18
HT-29 = test system: HT-29
ACHN = test system: ACHN
LOX IMVI = test system: LOX IMVI
Malme-3M = test system: Malme-3M
CAKI-1 = test system: CAKI-1
786-0 = test system: 786-0
CCRF-CEM = test system: CCRF-CEM
OVCAR-5 = test system: OVCAR-5
RXF 631 = test system: RXF 631
SK-MEL-5 = test system: SK-MEL-5
SK-OV-3 = test system: SK-OV-3
SNB-75 = test system: SNB-75
A498 = test system: A498
HCT-116 = test system: HCT-116
DMS-114 = test system: DMS-114
NCI-H522 = test system: NCI-H522
IGROV-1 = test system: IGROV-1
K562 = test system: K562
M14 = test system: M14
A549 = test system: A549
HCC 2998 = test system: HCC 2998
SNB-78 = test system: SNB-78
NCI-H23 = test system: NCI-H23
SK-MEL-2 = test system: SK-MEL-2
NCI-H226 = test system: NCI-H226
SF-295 = test system: SF-295
HL-60 = test system: HL-60
OVCAR-4 = test system: OVCAR-4
EKVX = test system: EKVX
U-251 = test system: U-251
XF498 = test system: XF498
RXF 393 = test system: RXF 393

Which results are given for `CN(C(=O)C12C3C4C5C3C1(C(=O)O)C5C42)C(C)(C)C` (stereo unspecified)?
GI50 (SW-620): 23.9 µM (inactive); GI50 (COLO 205): 28 µM (inactive); GI50 (SN12C): > 100 µM (inactive); GI50 (SR): > 100 µM (inactive); GI50 (HOP-92): > 100 µM (inactive); GI50 (KM12): > 100 µM (inactive); GI50 (DMS-273): 16.5 µM (inactive); GI50 (UO-31): > 100 µM (inactive); GI50 (KM-20L2): > 100 µM (inactive); GI50 (LXFL 529): 74.8 µM (inactive); GI50 (MOLT-4): > 100 µM (inactive); GI50 (TK-10): > 100 µM (inactive); GI50 (NCI-H460): > 100 µM (inactive); GI50 (DLD-1): 23.7 µM (inactive); GI50 (UACC-257): > 100 µM (inactive); GI50 (RPMI-8226): 52 µM (inactive); GI50 (SK-MEL-28): > 100 µM (inactive); GI50 (HCT-15): 33.2 µM; GI50 (OVCAR-3): > 100 µM (inactive); GI50 (SF-539): > 100 µM (inactive); GI50 (SF-268): > 100 µM (inactive); GI50 (SNB-19): > 100 µM (inactive); GI50 (M19-MEL): > 100 µM (inactive); GI50 (HOP-62): > 100 µM (inactive); GI50 (OVCAR-8): > 100 µM (inactive); GI50 (UACC-62): > 100 µM (inactive); GI50 (HOP-18): > 100 µM (inactive); GI50 (HT-29): 78.5 µM (inactive); GI50 (ACHN): > 100 µM (inactive); GI50 (LOX IMVI): 26.1 µM (inactive); GI50 (Malme-3M): > 100 µM (inactive); GI50 (CAKI-1): > 100 µM (inactive); GI50 (786-0): > 100 µM (inactive); GI50 (CCRF-CEM): 76.6 µM (inactive); GI50 (OVCAR-5): > 100 µM (inactive); GI50 (RXF 631): > 100 µM (inactive); GI50 (SK-MEL-5): > 100 µM (inactive); GI50 (SK-OV-3): > 100 µM (inactive); GI50 (SNB-75): > 100 µM (inactive); GI50 (A498): > 100 µM (inactive); GI50 (HCT-116): 34.2 µM (inactive); GI50 (DMS-114): 28.9 µM (inactive); GI50 (NCI-H522): > 100 µM (inactive); GI50 (IGROV-1): > 100 µM (inactive); GI50 (K562): 44.6 µM (inactive); GI50 (M14): > 100 µM (inactive); GI50 (A549): 42.2 µM (inactive); GI50 (HCC 2998): > 100 µM (inactive); GI50 (SNB-78): > 100 µM (inactive); GI50 (NCI-H23): > 100 µM (inactive); GI50 (SK-MEL-2): > 100 µM (inactive); GI50 (NCI-H226): > 100 µM (inactive); GI50 (SF-295): > 100 µM (inactive); GI50 (HL-60): 17.1 µM (inactive); GI50 (OVCAR-4): > 100 µM (inactive); GI50 (EKVX): > 100 µM (inactive); GI50 (U-251): > 100 µM (inactive); GI50 (XF498): > 100 µM (inactive)

What does the source list for `CCc1nc2ccccc2c(=O)n1/N=C(\N=N\c1ccc(Cl)cc1)c1ccccc1Cl`?
GI50 (COLO 205): 52.6 µM (inactive); GI50 (SN12C): 57.3 µM (inactive); GI50 (HOP-92): 20.2 µM (inactive); GI50 (DMS-273): 38.7 µM (inactive); GI50 (UO-31): 18.2 µM (inactive); GI50 (KM-20L2): 48.3 µM (inactive); GI50 (LXFL 529): 23.4 µM (inactive); GI50 (MOLT-4): 26.1 µM (inactive); GI50 (TK-10): 82.8 µM (inactive); GI50 (NCI-H460): 50.4 µM (inactive); GI50 (SK-MEL-28): 23.5 µM (inactive); GI50 (HCT-15): 68.2 µM; GI50 (SF-539): 47.4 µM (inactive); GI50 (SF-268): 28 µM (inactive); GI50 (RXF 393): 21.1 µM (inactive); GI50 (M19-MEL): > 100 µM (inactive); GI50 (HOP-62): 39.3 µM (inactive); GI50 (OVCAR-8): 39.5 µM (inactive); GI50 (UACC-62): > 100 µM (inactive); GI50 (HOP-18): 20 µM (inactive); GI50 (HT-29): 50.9 µM (inactive); GI50 (ACHN): 43.2 µM (inactive); GI50 (LOX IMVI): 53.2 µM (inactive); GI50 (CAKI-1): 65.5 µM (inactive); GI50 (786-0): 67.8 µM (inactive); GI50 (RXF 631): > 100 µM (inactive); GI50 (SK-OV-3): 60.7 µM (inactive); GI50 (A498): 51.9 µM (inactive); GI50 (HCT-116): 26.8 µM (inactive); GI50 (DMS-114): 20.1 µM (inactive); GI50 (NCI-H522): > 10 µM (inactive); GI50 (IGROV-1): > 100 µM (inactive); GI50 (M14): 68.5 µM (inactive); GI50 (NCI-H23): 82.8 µM (inactive); GI50 (SF-295): 54.7 µM (inactive); GI50 (EKVX): 2.11 µM (inactive); GI50 (U-251): 49.7 µM (inactive); GI50 (XF498): 18.5 µM (inactive)
